“Also recorded” adds a separate entry of the source. Read-outs that look alike come from different tables or passages of the source.
Legend:
Assay type in all cases: cell-based
R. amylophilus = conditions: strain H18
F. necrophorum = conditions: for M.I.C.: Table III, mass basis, no correction for purity; for Minimal Inhibitory Concentration (bioactivity data): Table IV (separate study)
R. flavefaciens = conditions: for M.I.C.: Table III, mass basis, no correction for purity; for Minimal Inhibitory Concentration (bioactivity data): Table IV (separate study)
E. lentum = conditions: strain L-34; Table IV (separate study)
M. elsdenii = conditions: strain B159
S. faecalis = conditions: for M.I.C.: Table III, mass basis, no correction for purity; for Minimal Inhibitory Concentration (bioactivity data): Table IV (separate study)
B. thetaiotaomicron = conditions: strain UC9014
Procedure: (§1) The assay measures the ability of a compound to inhibit the growth of certain types of anaerobic bacteria which normally inhabit the gut of poultry, swine or cattle.
(§2) Two mg/ml solutions of the drugs to be tested are made in 10% v/v ethanol/water. This stock is then diluted to one mg per ml and then further diluted through a series of ten-two fold dilutions. At each concentration an aliquot is placed in a sterile petri plate. Nine volumes of molten agar are then added to each plate, mixed and allowed to harden at room temperature. These plates are then transferred to a Coy chamber and allowed to dry and equilibrate with the oxygen free atmosphere.
(§3) Organisms used for MIC testing are inoculated into broth media, and incubated 18-24 h at 39° C. prior to use. The cultures are then diluted to equal the turbidity of a 0.5 MacFarland barium sulfate standard, except for the porcine isolates P108-3C1, P105-1C3 and P105-1C4 which are diluted 1:1. All inoculations and dilutions are performed in the anaerobic chamber using broth media and syringe transfer through the butyl robber stoppers.
(§4) Freshly prepared and diluted cultures are loaded into the wells of a Steers replicator device. This apparatus can dispense ca 10 μl of each of 32 cultures onto the surface of the preincubated agar plates. One hour after the inoculation, the inoculum will have been absorbed and the plates are inverted and incubated at 38°-39° C. for 48 h. Plates are then removed from the chamber and the MIC for the test compounds determined. MIC's are reported as the lowest concentration of a compound which prevented detectable growth of a test organism on the agar plates. […] Thus, each set of test plates yields individual MIC values for each of the 32 test organisms.

[1] = system: anaerobic bacteria which normally inhabit the gut of poultry, swine or cattle; test: in vitro MIC assay, overall comparison of components across the test organisms
Procedure: as §1, §2, §3, §4

B. fibrisolvens = conditions: for M.I.C.: Table III, mass basis, no correction for purity; for Minimal Inhibitory Concentration (bioactivity data): Table IV (separate study)
E. ruminantium = conditions: strain GA195
S. ruminantium = conditions: for M.I.C.: Table III, mass basis, no correction for purity; for Minimal Inhibitory Concentration (bioactivity data): Table IV (separate study)
L. multiparus = conditions: strain 40
S. bovis = conditions: strain JB1
B. fragilis = conditions: strain UC9370
C. perfringens = system: C. perfringens; design: Minimal Inhibitory Concentration (bioactivity data): unit not given here; conditions: for M.I.C.: Table III, mass basis, no correction for purity; for Minimal Inhibitory Concentration (bioactivity data): Table IV (separate study)
S. hyodysenteriae = system: S. hyodysenteriae; design: unit not given here; conditions: Table IV (separate study)
Procedure: as §1, §2, §3, §4

P. ruminicola = conditions: strain 118B
[2] = Table III, mass basis, no correction for purity

## C=C(NC(=O)c1ccc2c(n1)-c1coc(n1)C(=C)NC(=O)C(=C)NC(=O)c1nc(oc1C)C(=CC)NC(=O)c1csc(n1)C(OC)NC(=O)c1nc(oc1C)C(=CC(C)O)NC(=O)C(C(C)O)NC(=O)c1csc-2n1)C(N)=O (stereo not drawn) [Antibiotic 10381y, 52-de[1-[[[1-(aminocarbonyl)ethenyl]amino]carbonyl]ethenyl]-sulfomycin I]
R. amylophilus; [2]
  M.I.C.: 100.0 µg/mL
R. amylophilus; Table IV (separate study)
  Minimal Inhibitory Concentration (bioactivity data): < 0.2
F. necrophorum; strain FN4070
  M.I.C.: 25.0 µg/mL
  Minimal Inhibitory Concentration (bioactivity data): 50.0
F. necrophorum; strain FN5052
  M.I.C.: 25.0 µg/mL
  Minimal Inhibitory Concentration (bioactivity data): 50.0
R. flavefaciens; strain C94
  M.I.C.: 6.3 µg/mL
  Minimal Inhibitory Concentration (bioactivity data): 0.8
R. flavefaciens; strain FD1
  M.I.C.: < 0.2 µg/mL
  Minimal Inhibitory Concentration (bioactivity data): 0.4
E. lentum
  Minimal Inhibitory Concentration (bioactivity data): < 0.2
M. elsdenii; [2]
  M.I.C.: > 100.0 µg/mL
M. elsdenii; Table IV (separate study)
  Minimal Inhibitory Concentration (bioactivity data): > 100
S. faecalis; strain 71A01
  M.I.C.: 6.3 µg/mL
  Minimal Inhibitory Concentration (bioactivity data): 6.3
S. faecalis; strain CCS1-03
  M.I.C.: 1.6 µg/mL
  Minimal Inhibitory Concentration (bioactivity data): 3.1
S. faecalis; strain P1051C4
  M.I.C.: 1.6 µg/mL
  Minimal Inhibitory Concentration (bioactivity data): 0.8
B. thetaiotaomicron; [2]
  M.I.C.: < 0.2 µg/mL
B. thetaiotaomicron; Table IV (separate study)
  Minimal Inhibitory Concentration (bioactivity data): 50.0
[1]; against a variety of microorganisms
  bioactivity relative to the 10381b antibiotic complex or the 10381b (10381b2) component: increased antimicrobial activity; also recorded: about double
[1]; conclusion from Tables III and IV
  in vitro activity ranking of the individual components: most active
B. fibrisolvens; strain 49
  M.I.C.: < 0.2 µg/mL
  Minimal Inhibitory Concentration (bioactivity data): 0.4
B. fibrisolvens; strain D1
  M.I.C.: < 0.2 µg/mL
  Minimal Inhibitory Concentration (bioactivity data): < 0.2
E. ruminantium; [2]
  M.I.C.: 6.3 µg/mL
E. ruminantium; Table IV (separate study)
  Minimal Inhibitory Concentration (bioactivity data): 0.8
S. ruminantium; strain GA31
  M.I.C.: 25.0 µg/mL
  Minimal Inhibitory Concentration (bioactivity data): < 0.2
S. ruminantium; strain GA192
  M.I.C.: > 100.0 µg/mL
  Minimal Inhibitory Concentration (bioactivity data): < 0.2
L. multiparus; [2]
  M.I.C.: < 0.2 µg/mL
L. multiparus; Table IV (separate study)
  Minimal Inhibitory Concentration (bioactivity data): 12.5
S. bovis; [2]
  M.I.C.: 0.4 µg/mL
S. bovis; Table IV (separate study)
  Minimal Inhibitory Concentration (bioactivity data): 0.8
B. fragilis; [2]
  M.I.C.: 1.6 µg/mL
B. fragilis; Table IV (separate study)
  Minimal Inhibitory Concentration (bioactivity data): 50.0
C. perfringens; strain 71A02
  M.I.C.: < 0.2 µg/mL
  Minimal Inhibitory Concentration (bioactivity data): < 0.2
C. perfringens; strain A82-1
  M.I.C.: 0.8 µg/mL
  Minimal Inhibitory Concentration (bioactivity data): 12.5
C. perfringens; strain A83-3
  M.I.C.: < 0.2 µg/mL
  Minimal Inhibitory Concentration (bioactivity data): < 0.2
C. perfringens; strain A83-RKP
  M.I.C.: 0.4 µg/mL
  Minimal Inhibitory Concentration (bioactivity data): < 0.2
C. perfringens; strain CCS1-11
  M.I.C.: 0.8 µg/mL
  Minimal Inhibitory Concentration (bioactivity data): < 0.2
C. perfringens; strain CCS2-09
  M.I.C.: < 0.2 µg/mL
  Minimal Inhibitory Concentration (bioactivity data): < 0.2
C. perfringens; strain P1051C3
  M.I.C.: 12.5 µg/mL
  Minimal Inhibitory Concentration (bioactivity data): 6.3
C. perfringens; strain P1083C1
  M.I.C.: < 0.2 µg/mL
  Minimal Inhibitory Concentration (bioactivity data): 0.8
C. perfringens; strain RF1B04
  M.I.C.: < 0.2 µg/mL
  Minimal Inhibitory Concentration (bioactivity data): < 0.2
C. perfringens; strain UC9452
  M.I.C.: < 0.2 µg/mL
  Minimal Inhibitory Concentration (bioactivity data): 0.8
S. hyodysenteriae; strain 16-4
  Minimal Inhibitory Concentration (bioactivity data): > 100
S. hyodysenteriae; strain B204
  Minimal Inhibitory Concentration (bioactivity data): > 100
P. ruminicola; [2]
  M.I.C.: < 0.2 µg/mL
P. ruminicola; Table IV (separate study)
  Minimal Inhibitory Concentration (bioactivity data): < 0.2

From patent US5736510A, “Antibiotics 10381v, w, x,y, z1, z2, pre-b and t” (priority 1996, dated 1998)
